We go through 18 compounds from patent US11229208B2, “Pesticidally active bi- or tricyclic heterocycles with sulfur containing substituents” (priority 2013, dated 2022).

Where “and” joins values, the source holds several entries; their conditions need not be identical. Identical values can stand only once. Like-named read-outs stand apart in the source and are kept apart here.

Data set [1] relates to Diabrotica balteata (Corn Root Worm). Description: Diabrotica balteata, treated artificial diet, L2 larvae. It is filed as in vivo. As to conditions: 120 h, read-out: effect in at least one of the two categories (mortality or growth inhibition). The procedure: Example B4: Diabrotica balteata (Corn Root Worm)
24-well microtiter plates with artificial diet were treated with aqueous test solutions prepared from 10,000 ppm DMSO stock solutions by pipetting. After drying, the plates were infested with L2 larvae (6 to 10 per well). The samples were assessed for mortality and growth inhibition in comparison to untreated samples 5 days after infestation.
The following compounds gave an effect of at least 80% in at least one of the two categories (mortality or growth inhibition) at an application rate of 200 ppm: […]

The subject of data set [2] is Plutella xylostella (Diamond Back Moth). The data set is described as follows: Plutella xylostella, treated artificial diet, L2 larvae. It is filed as in vivo. As to conditions: 120 h, application rate 200 ppm, 5 days after infestation. The procedure: Example B3: Plutella xylostella (Diamond Back Moth)
24-well microtiter plates with artificial diet were treated with aqueous test solutions prepared from 10,000 ppm DMSO stock solutions by pipetting. After drying, the plates were infested with L2 larvae (10 to 15 per well). The samples were assessed for mortality 5 days after infestation.

For data set [3], the system named is Myzus persicae (Green Peach Aphid). Description: Myzus persicae, sprayed sunflower leaf discs, mixed-age population. In kind it is in vivo. As to conditions: foliar, 144 h, application rate 200 ppm, 6 days after infestation. As to the method: Example B5: Myzus persicae (Green Peach Aphid)
Sunflower leaf discs were placed on agar in a 24-well microtiter plate and sprayed with aqueous test solutions prepared from 10,000 ppm DMSO stock solutions. After drying, the leaf discs were infested with an aphid population of mixed ages. The samples were assessed for mortality 6 days after infestation.

Data set [4] shares this test system. Description: Myzus persicae systemic test, roots of infested pea seedlings in test solution. As to conditions: 144 h, test rate 24 ppm, 6 days after placing seedlings in test solutions. It is filed as in vivo. As to the method:
Example B6: Myzus persicae (Green Peach Aphid)
Roots of pea seedlings infested with an aphid population of mixed ages were placed directly in the aqueous test solutions prepared from 10,000 DMSO stock solutions. The samples were assessed for mortality 6 days after placing seedlings in test solutions.

Data set [5] has as its system Spodoptera littoralis (Egyptian Cotton Leaf Worm). The data set is described as follows: Spodoptera littoralis, sprayed cotton leaf discs, L1 larvae. To be noted: foliar, 72 h, read-out: mortality (control). It is filed as in vivo. The procedure:
Example B2: Spodoptera littoralis (Egyptian Cotton Leaf Worm)
Cotton leaf discs were placed on agar in 24-well microtiter plates and sprayed with aqueous test solutions prepared from 10,000 ppm DMSO stock solutions. After drying the leaf discs were infested with five L1 larvae. The samples were assessed for mortality 3 days after infestation.

For data set [6] the test system is unchanged. Description: Spodoptera littoralis systemic test, lettuce grown on treated agar, infested with eggs. In kind it is in vivo. To be noted: 144 h, test rate 12.5 ppm, assessed 6 days after infestation, in comparison to untreated samples, read-out: effect in at least one of the three categories (mortality, anti-feedancy, or growth inhibition). The source says: Example B1: Spodoptera littoralis (Egyptian Cotton Leaf Worm)
Test compounds were applied by pipette from 10,000 ppm DMSO stock solutions into 24-well plates and mixed with agar. Lettuce seeds were placed on the agar and the multi well plate was closed by another plate which contains also agar. After 7 days the roots have absorbed the compound and the lettuce has grown into the lid plate. The lettuce leafs were now cut off into the lid plate. Spodoptera eggs were pipetted through a plastic stencil on a humid gel blotting paper and the plate closed with it. The samples were assessed for mortality, anti-feedant effect and growth inhibition in comparison to untreated samples 6 days after infestation.
The following compounds gave an effect of at least 80% in at least one of the three categories (mortality, anti-feedancy, or growth inhibition) at a test rate of 12.5 ppm: […]

Data set [7] has as its system Tetranychus urticae (Two-Spotted Spider Mite). The data set is described as follows: Tetranychus urticae, sprayed bean leaf discs, mixed-age mite population. It is filed as in vivo. As to conditions: foliar, 192 h, read-out: mortality on mixed population (mobile stages). The procedure: Example B11: Tetranychus urticae (Two-Spotted Spider Mite)
Bean leaf discs on agar in 24-well microtiter plates were sprayed with aqueous test solutions prepared from 10,000 ppm DMSO stock solutions. After drying the leaf discs were infested with a mite population of mixed ages. The samples were assessed for mortality on mixed population (mobile stages) 8 days after infestation.

Data set [8] concerns Myzus persicae (Green Peach Aphid). Description: Myzus persicae, sucrose solution feeding through Parafilm. It is filed as in vivo. To be noted: 120 h, test rate 12 ppm, 5 days after infestation. As to the method:
Example B7: Myzus persicae (Green Peach Aphid)
Test compounds from 10,000 ppm DMSO stock solutions were applied by pipette into 24-well microtiter plates and mixed with sucrose solution. The plates were closed with a stretched Parafilm. A plastic stencil with 24 holes was placed onto the plate and infested pea seedlings were placed directly on the Parafilm. The infested plate was closed with a gel blotting paper and another plastic stencil and then turned upside down. The samples were assessed for mortality 5 days after infestation.

The subject of data set [9] is Bemisia tabaci (Cotton White Fly). The data set is described as follows: Bemisia tabaci, sprayed cotton leaf discs, adult white flies. It is filed as in vivo. As to conditions: foliar, 144 h, application rate 200 ppm, 6 days after incubation. As to the method: Example B10: Bemisia tabaci (Cotton White Fly)
Cotton leaf discs were placed on agar in 24-well microtiter plates and sprayed with aqueous test solutions prepared from 10,000 ppm DMSO stock solutions. After drying the leaf discs were infested with adult white flies. The samples were checked for mortality 6 days after incubation.

[10] abbreviates: application rate 200 ppm, 5 days after infestation, in comparison to untreated samples.
The mark [11] stands for this setting: application rate 200 ppm, 3 days after infestation.

What is called melting point is the temperature, or range, at which the solid turns liquid. In turn, `CCSc1cc(C(F)(F)F)cnc1-c1nc2cc(Cl)nnc2n1C` returned a melting point of 156 to 158 °C.
The same measure, in the same setting: for `CCS(=O)(=O)c1cc(C(F)(F)F)nnc1-c1nc2cc(C(F)(F)F)cnc2n1C` the value was 172 to 174 °C.
The term mortality denotes the percentage killed. Consider `CCS(=O)(=O)c1cc(C(F)(F)F)cnc1-c1nc2cc(C(F)(F)F)ncn2n1` [Compound V16.03, 2-[3-ethylsulfonyl-5-(trifluoromethyl)-2-pyridyl]-7-(trifluoromethyl) [1,2,4]triazolo[1,5-c]pyrimidine], for which the percent effect (mortality or growth inhibition) at 200 ppm in [1] (setting [10]) is at least 80%. In addition, the mortality at 200 ppm in data set [2] and in data set [3] was at least 80% each time. In data set [4], the mortality at 24 ppm was at least 80%.
`CCS(=O)(=O)c1cc(C(F)(F)F)cnc1-c1nc2nc(C(F)(F)F)cnc2n1C`: the melting point was in the range of 162 to 165 °C.
Still for that read-out and setting: for `CCS(=O)(=O)c1nc(C(F)(F)F)sc1-c1cn2ccc(C(F)(F)F)cc2n1` the value was 126 to 128 °C.
On to `CCS(=O)(=O)c1cc(C(F)(F)F)cnc1-c1cn2cnc(C(F)(F)F)cc2n1` [Compound V16.02, 2-[3-ethylsulfonyl-5-(trifluoromethyl)-2-pyridyl]-7-(trifluoromethyl)imidazo[1,2-c]pyrimidine], for which, in data set [1] (setting [10]), the percent effect (mortality or growth inhibition) at 200 ppm was at least 80%. Also, the mortality at 200 ppm is at least 80% in [2]; at least 80% in data set [5] (setting [11]); at least 80% in [7] (application rate 200 ppm, 8 days after infestation); at least 80% in data set [3]. The percent effect (mortality, anti-feedancy or growth inhibition) at 12.5 ppm in data set [6] is at least 80%.
In data set [8], `CCS(=O)(=O)c1nc(C(F)(F)F)sc1-c1nc2cc(C(F)(F)F)ncc2n1C` [Compound V14.05, 4-Ethylsulfonyl-5-[3-methyl-6-(trifluoromethyl)imidazo[4,5-c]pyridin-2-yl]-2-(trifluoromethyl)thiazole] returned a mortality at 12 ppm of at least 80%. In [3], the mortality at 200 ppm is at least 80%. This compound also returned a mortality at 24 ppm in data set [4] of at least 80%.
`CCS(=O)(=O)c1nc(C(F)(F)F)ccc1-c1cn2ccc(C(F)(F)F)cc2n1` showed a melting point of 188 to 190 °C.
Same read-out and setting: for `CCS(=O)(=O)c1cc(OC(F)F)cnc1-c1nc2cc(C(F)(F)F)ncc2n1C` the value was 146 to 148 °C; for `CCS(=O)(=O)c1nc(C(F)(F)F)ccc1-c1nc2cc3nc(C(F)(F)F)n(C)c3nc2n1C`, 197 to 199 °C.
Still for that read-out and setting: for `CC1Cc2c(C(F)(F)F)ccc(-c3nc4cc(C(F)(F)F)cnc4n3C)c2S1(=O)=O` (stereo not shown) the value was 206 °C.
Consider `CCS(=O)(=O)c1cc(C(F)(F)F)cnc1-c1nc2cc(C(F)(F)F)ncn2c1C` [Compound V16.01, 2-[3-ethylsulfonyl-5-(trifluoromethyl)-2-pyridyl]-3-methyl-7-(trifluoromethyl)imidazo[1,2-c]pyrimidine], for which, in [8], the mortality at 12 ppm was at least 80%. For the same compound, the mortality at 200 ppm in data set [2], in data set [5] (setting [11]) and in [3] was at least 80% in each case. The percent effect (mortality, anti-feedancy or growth inhibition) at 12.5 ppm in [6] is at least 80%.
As for `CCS(=O)(=O)c1scnc1-c1nc2cc(C(F)(F)F)ncc2n1C` [Compound V13.05, 5-ethylsulfonyl-4-[3-methyl-6-(trifluoromethyl)imidazo[4,5-c]pyridin-2-yl]thiazole], the percent effect (mortality or growth inhibition) at 200 ppm in data set [1] (setting [10]) is at least 80%. The mortality at 200 ppm in data set [2] and in data set [9] was at least 80% in each case.
On to `CCS(=O)(=O)c1nsnc1-c1nc2cc(C(F)(F)F)cnc2n1C`, for which the melting point is 144 to 146 °C.
Compound `CCS(=O)(=O)c1cc(C(F)(F)F)cnc1-c1nc2cc(Cl)nnc2n1C` [Compound V12.17, 3-chloro-6-[3-ethylsulfonyl-5-(trifluoromethyl)-2-pyridyl]-7-methyl-imidazo[4,5-c]pyridazine] came in with a mortality at 12 ppm in data set [8] of at least 80%. In data set [3], this compound had a mortality at 200 ppm of at least 80%. The mortality at 24 ppm in data set [4] is at least 80%.
For `Cn1c(-c2ncc(C(F)(F)F)cc2S(C)(=O)=O)nc2cc(C(F)(F)F)ncc21` [Compound V12.18, 3-methyl-2-[3-methylsulfonyl-5-(trifluoromethyl)-2-pyridyl]-6-(trifluoromethyl)imidazo[4,5-c]pyridine], the percent effect (mortality or growth inhibition) at 200 ppm in data set [1] is at least 80%. For the same compound, the mortality at 200 ppm in [5] and in data set [7] was at least 80% throughout.
In the case of `CCSc1cc(C(F)(F)F)nnc1-c1nc2cc(C(F)(F)F)cnc2n1C`, the melting point is 149 to 150 °C and 149 to 156 °C.
`CCS(=O)(=O)c1cc(C(F)(F)F)cnc1-c1nc2cc(Br)ncc2n1C` [Compound V12.20, 6-bromo-2-[3-ethylsulfonyl-5-(trifluoromethyl)-2-pyridyl]-3-methyl-imidazo[4,5-c]pyridine] came in with a mortality at 12 ppm in [8] of at least 80%. Also, the percent effect (mortality or growth inhibition) at 200 ppm in data set [1] (setting [10]) was at least 80%. Besides, the mortality at 200 ppm in data set [9], in [5] (setting [11]) and in [3] was at least 80% each time. The mortality at 24 ppm in [4] is at least 80%.
